Measured values: PubChem BioAssay (NCI)
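Growth conditions: 96-well plates. Treatment: test compound, 48 hours, 5 concentrations. Analysis: linear interpolation between bracketing concentrations; unreached endpoints set to highest concentration. The concentration for full growth arrest is given as TGI.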

What was measured:
Test in all cases: NCI-60 cell line screen, 48 h
IGROV1 ovarian = test system: IGROV1 ovarian
786-0 renal = test system: 786-0 renal
SK-OV-3 ovarian = test system: SK-OV-3 ovarian
PC-3 prostate = test system: PC-3 prostate
OVCAR-5 ovarian = test system: OVCAR-5 ovarian
NCI/ADR-RES ovarian = test system: NCI/ADR-RES ovarian
EKVX NSCLC = test system: EKVX NSCLC
SF-268 CNS = test system: SF-268 CNS
SF-295 CNS = test system: SF-295 CNS
SK-MEL-28 melanoma = test system: SK-MEL-28 melanoma
K-562 leukemia = test system: K-562 leukemia
KM12 colon = test system: KM12 colon

SMILES | TGI (IGROV1 ovarian) [µM] | TGI (786-0 renal) [µM] | TGI (SK-OV-3 ovarian) [µM] | TGI (PC-3 prostate) [µM] | TGI (OVCAR-5 ovarian) [µM] | TGI (NCI/ADR-RES ovarian) [µM] | TGI (EKVX NSCLC) [µM] | TGI (SF-268 CNS) [µM] | TGI (SF-295 CNS) [µM] | TGI (SK-MEL-28 melanoma) [µM] | TGI (K-562 leukemia) [µM] | TGI (KM12 colon) [µM]
C#CC(O)/C=C/CCCCCCC#CC/C=C\CC#CCCCCCC/C=C/C(O)C#C (centres undefined) | 2.17 | 5.23 | 32.1 | 24.4 | 7.86 | 8.26 | 5.23 | 10.8 | 26.9 | 4.58 | 9.67 | 5.29
OCCCSc1ccccc1SCCCO | > 100 | > 100 | > 100 | > 100 | > 100 | > 100 | > 100 | > 100 | > 100 | > 100 | > 100 | > 100
CC(C)(C)c1cc(-c2ccc(-c3cc(C(C)(C)C)c(O)c(C(C)(C)C)c3)cc2)cc(C(C)(C)C)c1O | > 100 | > 100 | > 100 | > 100 | > 100 | > 100 | > 100 | > 100 | > 100 | > 100 | > 100 | > 100
O=C1Oc2ccccc2C(=O)/C1=C/N1C(=O)/C(=C/c2ccc([N+](=O)[O-])cc2)SC1=S | > 100 | > 100 | 89.5 | 61.7 | > 100 | 95.7 | > 100 | 75.4 | 68 | 85.7 | 69.8 | 52.3
NC(=O)c1n[nH]n(-c2ccccc2)c1=O | > 100 | > 100 | > 100 | > 100 | > 100 | > 100 | > 100 | > 100 | > 100 | > 100 | > 100 | > 100
FC(F)(F)c1ccc2c(c1)nc(Cc1ccccc1)n2C[C@@H]1CCCN2CCCCC12 (some centres undefined) | 28.9 | 28.6 | 31.3 | 28.5 | 31.7 | 30.9 | 28.9 | 31 | 29.6 | 32.3 | > 64.8 | 30.3
Cn1c(-c2csc(-c3ccc(Cl)cc3)n2)n[nH]c1=S | 38 | 32.2 | 32 | > 100 | > 100 | > 100 | > 100 | 81.4 | 34.3 | > 100 | > 100 | > 100
O=S(=O)(O)CCS | > 100 | > 100 | > 100 | > 100 | > 100 | > 100 | > 100 | > 100 | > 100 | > 100 | > 100 | > 100
Cn1c(N2CCCC2)c(C=O)c(=O)n(C)c1=O | > 100 | > 100 | > 100 | > 100 | > 100 | > 100 | > 100 | > 100 | > 100 | > 100 | > 100 | > 100
O=C1CC(Br)c2c(Cl)sc(Cl)c21 (centres undefined) | 24.7 | 8.91 | 30.4 | 23.4 | 36.3 | 90.1 | 48.2 | 26.6 | 30.2 | 30.3 | 13.7 | 20.2
Cc1cccc2sc(NC(=O)c3cc([N+](=O)[O-])ccc3Cl)nc12 | 10.7 | 4.67 | > 100 | 38.4 | 28.4 | > 24.2 | > 100 | > 33.7 | > 100 | > 94.2 | > 100 | 12.1
CCC(=O)OCc1ccc2oc(=O)c(C(=O)Oc3cncc(Cl)c3)cc2c1 | > 100 | > 100 | > 100 | > 100 | > 100 | > 100 | > 100 | > 100 | > 100 | > 100 | 77.9 | > 100
O=C(O)c1c(-c2c3ccc(=O)cc-3oc3cc(O)ccc23)cc2ccccc2c1-c1ccccc1 | > 100 | > 100 | > 100 | > 100 | > 100 | > 100 | > 100 | > 100 | > 100 | > 100 | > 46.4 | > 100
CC(C)CCCC(C)[C@H]1CC[C@H]2[C@@H]3CC[C@H]4C[C@@H](CCC=C(c5cc(Cl)c(O)c(C(=O)OC(C)(C)C)c5)c5cc(Cl)c(O)c(C(=O)OC(C)(C)C)c5)CC[C@]4(C)[C@H]3CC[C@]12C (some centres undefined) | > 50 | > 50 | > 50 | > 50 | > 50 | > 50 | > 50 | > 50 | > 50 | > 50 | > 50 | > 50
COC(=O)[C@H]1[C@H](C(=O)OC)[C@@H](C)c2c(ccc3c2[nH]c2ccccc23)[C@@H]1C | > 100 | 61.5 | > 100 | > 100 | > 100 | > 100 | > 100 | > 100 | > 100 | > 100 | > 100 | > 100
COC1(OC)N=C(N)C2(C#N)C(C)CC(=O)N(N(C)C)C12C#N (centres undefined) | > 100 | > 100 | > 100 | > 100 | > 100 | > 100 | > 100 | > 100 | > 100 | > 100 | > 100 | > 100
O=C(CCCCCCCCC(=O)NN1C(=O)/C(=C\c2ccc(O)c(O)c2)SC1c1c(O)ccc2ccccc12)NN1C(=O)C(=Cc2ccc(O)c(O)c2)SC1c1c(O)ccc2ccccc12 (centres undefined) | > 55.5 | > 70 | > 86.8 | > 100 | > 100 | > 100 | > 100 | > 100 | > 100 | > 100 | > 60.8 | > 100
COc1cccc(NCC(=O)Nn2c(-c3ccccc3)nc3ccccc3c2=O)c1 | > 100 | > 100 | > 100 | > 100 | > 100 | > 100 | > 100 | > 100 | > 100 | > 100 | > 100 | > 100
COC(=O)NCCc1[nH]nc2c1C(=O)C=C(OC)C2=O | 34.9 | 36.2 | > 100 | 95.8 | 37.8 | > 100 | 44.5 | 36 | 32.2 | 35.3 | 37.3 | 41.3
Cc1ccc(/C=C2\NC(=S)N(CN3CCOCC3)C2=O)cc1 | > 100 | > 100 | > 100 | > 100 | > 100 | > 100 | > 100 | > 100 | > 100 | > 100 | > 100 | > 100
N#CC1C(=O)Nc2sc(C(=O)c3ccc(Br)cc3)c(N)c2C12CCCCC2 (centres undefined) | > 100 | > 100 | > 100 | 57.1 | > 100 | > 100 | > 100 | > 100 | > 100 | 47.7 | > 100 | 44.1
COc1ccc(-c2cc(-c3ccc(Nc4ccnc5cc(C(F)(F)F)ccc45)cc3)[nH]c(=O)c2C#N)c2ccccc12 | > 100 | > 100 | > 100 | > 100 | > 100 | > 100 | > 100 | > 100 | > 100 | > 100 | > 100 | > 100
CCOC(=O)CCC(NC(=O)c1ccc(CNc2nc3cc(N)cc(N)c3nc2-c2ccccc2)cc1)C(=O)OCC (centres undefined) | > 100 | > 100 | > 100 | > 100 | > 100 | > 100 | > 100 | > 100 | > 100 | 66.6 | > 100 | > 100
C=C(C)CCC1CCCCC(CN(C)C)C1=O (centres undefined) | > 100 | > 100 | > 100 | > 100 | > 100 | > 100 | > 100 | > 100 | > 100 | > 100 | > 100 | > 100
OCCSCCCSCCO | > 100 | > 100 | > 100 | > 100 | > 100 | > 100 | > 100 | > 100 | > 100 | > 100 | > 100 | > 100
OC(c1cccs1)c1cc2ccccc2s1 (centres undefined) | > 10 | > 10 | > 10 | > 10 | > 10 | > 10 | > 10 | > 10 | > 10 | > 10 | > 10 | > 10
COC(=O)C1OC(O[C@H]2CC[C@]3(C)[C@H]4CC=C5[C@@H]6CC(C)(C)CC[C@]6(C(=O)OC)[C@H](O)C[C@@]5(C)[C@]4(C)CC[C@H]3C2(C)C)C(O)C(O)C1O (some centres undefined) | 24.8 | 20.9 | 28.2 | 19.8 | 26 | 26.3 | 21.4 | 29.5 | 23.1 | 23.8 | 15 | 4.21
